Data from patent US20260206755A1, “COMPOUNDS AND COMPOSITIONS HAVING KNOCK-DOWN OR BLOOD FEED INHIBITION ACTIVITY AGAINST INSECT PESTS” (priority 2017, published 2026).
Read-outs that look alike come from different tables or passages of the source.

Tested on: Anopheles stephensi
Assay: Anopheles stephensi treated well plate contact test: knockdown and mortality
Format: in vivo
Details: for mortality at 0.2 ppm / pest or weed control at 0.2 ppm / mortality at 2 ppm / pest or weed control at 2 ppm / mortality at 20 ppm / pest or weed control at 20 ppm / mortality at 200 ppm / pest or weed control at 200 ppm: Anopheles stephensi, without TFNA-AM; for mortality at 0.2 ppm / pest or weed control at 0.2 ppm: test compound 0.2 ppm; for pest or weed control at 0.2 ppm / pest or weed control at 2 ppm / pest or weed control at 20 ppm / pest or weed control at 200 ppm / Knock Down, with TFNA-AM: knockdown after 1 hour; for pest or weed control at 0.2 ppm / pest or weed control at 2 ppm / pest or weed control at 20 ppm / pest or weed control at 200 ppm: read-out: Knock Down, without TFNA-AM; for mortality at 2 ppm / pest or weed control at 2 ppm: test compound 2 ppm; for mortality at 20 ppm / pest or weed control at 20 ppm: test compound 20 ppm; for mortality at 200 ppm / pest or weed control at 200 ppm: test compound 200 ppm; for pest or weed control at 200 ppm: adult females
In short: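 Well surfaces coated with ethanol solution of compound at a defined concentration, alone or with 2 ppm TFNA-AM, then dried. Five non-blood-fed 2–5-day-old adult females per well, fed 10% sucrose; knockdown scored at 1 hour, mortality at 24 and 48 hours, replicate means reported.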

[1] = after 24 hours, read-out: mortality % 24, without TFNA-AM
[2] = after 48 hours, read-out: mortality % 48, without TFNA-AM
[3] = test compound 0.2 ppm plus 2 ppm TFNA-AM, after 24 hours
[4] = test compound 0.2 ppm plus 2 ppm TFNA-AM, after 48 hours
[5] = test compound 0.2 ppm plus 2 ppm TFNA-AM
[6] = test compound 2 ppm plus 2 ppm TFNA-AM, after 48 hours
[7] = test compound 2 ppm plus 2 ppm TFNA-AM
[8] = test compound 20 ppm plus 2 ppm TFNA-AM, after 24 hours
[9] = test compound 20 ppm plus 2 ppm TFNA-AM, after 48 hours
[10] = test compound 20 ppm plus 2 ppm TFNA-AM
[11] = test compound 200 ppm plus 2 ppm TFNA-AM, after 24 hours
[12] = test compound 200 ppm plus 2 ppm TFNA-AM, after 48 hours
[13] = test compound 200 ppm plus 2 ppm TFNA-AM
[14] = test compound 2 ppm plus 2 ppm TFNA-AM, after 24 hours

| SMILES | mortality at 0.2 ppm [1] [%] | mortality at 0.2 ppm [2] [%] | pest or weed control at 0.2 ppm [%] | mortality at 2 ppm [1] [%] | mortality at 2 ppm [2] [%] | pest or weed control at 2 ppm [%] | mortality at 20 ppm [1] [%] | mortality at 20 ppm [2] [%] | pest or weed control at 20 ppm [%] | mortality at 200 ppm [1] [%] | mortality at 200 ppm [2] [%] | pest or weed control at 200 ppm [%] | mortality % 24, with TFNA-AM [3] [%] | mortality % 48, with TFNA-AM [4] [%] | Knock Down, with TFNA-AM [5] [%] | mortality % 48, with TFNA-AM [6] [%] | Knock Down, with TFNA-AM [7] [%] | mortality % 24, with TFNA-AM [8] [%] | mortality % 48, with TFNA-AM [9] [%] | Knock Down, with TFNA-AM [10] [%] | also measured |
| --- | --- | --- | --- | --- | --- | --- | --- | --- | --- | --- | --- | --- | --- | --- | --- | --- | --- | --- | --- | --- | --- |
| CO/C=C(/C(=O)OC)c1ccccc1COc1cc(C(F)(F)F)nc(OC(C)C)n1 [Fluacrypyrim] | 0 | 0 | 0 | 0 | 0 | 0 | 0 | 0 | 0 | 20 | 80 | 0 | 60 | 40 | 100 | 100 | 100 | 100 | 100 | 100 | mortality % 24, with TFNA-AM [11]: 100%; mortality % 48, with TFNA-AM [12]: 100%; Knock Down, with TFNA-AM [13]: 100% |
| O=[N+]([O-])c1cc(C(F)(F)F)c(Cl)c([N+](=O)[O-])c1Nc1ncc(C(F)(F)F)cc1Cl [Fluazinam] | 0 | 0 | 0 | 0 | 0 | 0 | 70 | 80 | 20 | 90 | 90 | 20 | 30 | 20 | 100 | 20 | 100 | 100 | 100 | 100 | mortality % 24, with TFNA-AM [14]: 30%; mortality % 24, with TFNA-AM [11]: 100%; mortality % 48, with TFNA-AM [12]: 100%; Knock Down, with TFNA-AM [13]: 100% |
| Cc1cc(C(F)(C(F)(F)F)C(F)(F)F)ccc1NC(=O)c1cccc(I)c1C(=O)NC(C)(C)CS(C)(=O)=O [Flubendiamide] | 0 | 0 | 0 | 0 | 0 | 0 | 0 | 0 | 0 | 0 | 0 | 0 | 80 | 40 | 100 | 40 | 100 | 80 | 40 | 100 | mortality % 24, with TFNA-AM [14]: 80%; mortality % 24, with TFNA-AM [11]: 60%; mortality % 48, with TFNA-AM [12]: 40%; Knock Down, with TFNA-AM [13]: 100% |
